Data from patent publication US11415579B2, “Assay for measuring a rate of reaction between a target and a ligand candidate” (Imperial College Innovations Ltd., priority 2016, dated 2022).

Key:
[1] = Kinetic thiol consumption assay with model thiol glutathione; assay type: physicochemical; set-up: Rate constant with glutathione (k(GSH)): unit not given here; details: for Rate constant with Glutathione: Protein: Glutathione, cysteine position NA, in h-1
Description: (§1) A library of 120 acrylamides was screened against a) human cyclin-dependent kinase 2 (Cdk2, which contains one surface exposed cysteine residue—C177), prepared by cloning cDNA into the pRSETA bacterial expression vector to generate a poly-histidine tagged Cdk2 fusion that was purified from E. coli using standard techniques, and b) a model thiol (specific details are given below). The structures of these 120 acrylamides are set out in Table 1, above.
(§2) To wells containing 150 μL thiol (Cdk2 or model thiol) (5 μM) in degassed phosphate buffer (pH 8) was added immobilized TCEP beads (2% v/v).
(§3) After incubation of the fluorescence plates for 1 hour at room temperature, fluorescence measurements (excitation/emission of 380/470 nm) were taken on a PerkinElmer EnVision multilabel plate reader and processed with EnVision Workstation version 1.12.
(§4) Fluorescence measurements were normalized against a DMSO/thiol only control and plotted against time.
(§5) Rate constants were calculated using GraphPad software Prism version 6 by fitting a first order exponential decay to the data. The rate constant for each acrylamide with Cdk2 was divided by the rate constant for that fragment with the model thiol to provide the rate enhancement for each ligand candidate.
The model thiol in Example 1 is glutathione (GSH). Hits were defined as fragments where kCdk2/kGSH>5.8 (empirically determined as 3 standard deviations over the mean).

[2] = biological target: T1, human cyclin-dependent kinase 2 (Cdk2) (Homo sapiens, UniProt P24941); assay: Kinetic thiol consumption assay with wild type Cdk2 (C177); assay type: binding; set-up: key to Rate enhancement, Cdk2 WT: k(Cdk2) divided by k(model thiol); Rate constant with Cdk2 (k(Cdk2)): unit not given here; details: for Rate enhancement, Cdk2 WT: no additional mutations; for Rate constant with Cdk2 WT: Protein: Cdk2, cysteine position WT, in h^-1
T1 construct: poly-histidine; made in house; host or cells: E. coli
Description: as §1, §2, §3, §4, §5

Cdk2(C177A, F80C) = biological target: T2, Cdk2(C177A, F80C) (Homo sapiens, UniProt P24941, C177A/F80C); assay: Kinetic thiol consumption assay with Cdk2 mutant F80C, incl. kobs versus concentration (Kd, k2); assay type: binding; set-up: key to Rate enhancement, Cdk2 F80C: Cdk2 rate constant divided by model-thiol rate constant; details: additional mutation C177A; for Rate constant with Cdk2 F80C: Protein: Cdk2, cysteine position F80C, in h^-1
T2 construct: poly-histidine; made in house; host or cells: E. coli
Description: Therefore the assay can be used to calculate both k2 and Kd by experimentally determining kobs at a suitable range of ligand candidate concentrations. Typically Kd and k2 would then be determined by fitting a hyperbolic curve to a plot of kobs against ligand candidate concentration (FIG. 9).
as §2, §3, §4, §5
(§6) A further set of set of additional Cdk2 mutants were screened, all containing the C177A mutation and therefore with only one cysteine on the surface: • F80C (without the K278C mutation) • H71C • S276C • N272 • T182C • R122C • S181C
(§7) Mutations were introduced by site-directed mutagenesis and the resulting cDNA was cloned into the pRSETA bacterial expression vector to generate a poly-histidine tagged Cdk2 fusion that was purified from E. coli using standard techniques.
Rate constants were calculated as described in the methodology section of Examples 1 and 2.

Cdk2(H71C) (C177A) = biological target: T3, Cdk2(H71C) (C177A) (Homo sapiens, UniProt P24941, C177A/H71C); assay: Kinetic thiol consumption assay with Cdk2 mutant H71C; assay type: binding; set-up: key to Rate enhancement, Cdk2 H71C: rate constant with Cdk2 ÷ rate constant with model thiol (fold); details: additional mutation C177A; for Rate constant with Cdk2 H71C: Protein: Cdk2, cysteine position H71C, in h^-1
T3 construct: poly-histidine; made in house; host or cells: E. coli
Description: as §2, §3, §4, §5, §6, §7

Cdk2(S276C) (C177A) = biological target: T4, Cdk2(S276C) (C177A) (Homo sapiens, UniProt P24941, C177A/S276C); assay: Kinetic thiol consumption assay with Cdk2 mutant S276C; assay type: binding; set-up: key to Rate enhancement, Cdk2 S276C: rate constant with Cdk2 ÷ rate constant with model thiol (fold); details: additional mutation C177A; for Rate constant with Cdk2 S276C: Protein: Cdk2, cysteine position S276C, in h^-1
T4 construct: poly-histidine; made in house; host or cells: E. coli
Description: as §2, §3, §4, §5, §6, §7

Cdk2(N272C) (C177A) = biological target: T5, Cdk2(N272C) (C177A) (Homo sapiens, UniProt P24941, C177A/N272C); assay: Kinetic thiol consumption assay with Cdk2 mutant N272C; assay type: binding; set-up: key to Rate enhancement, Cdk2 N272: rate constant with Cdk2 ÷ rate constant with model thiol (fold); details: for Rate enhancement, Cdk2 N272: Cdk2 N272, additional mutation C177A; for Rate constant with Cdk2 N272C: Protein: Cdk2, cysteine position N272C, additional mutation C177A, in h^-1
T5 construct: poly-histidine; made in house; host or cells: E. coli
Description: as §2, §3, §4, §5, §6, §7

Cdk2(T182C) (C177A) = biological target: T6, Cdk2(T182C) (C177A) (Homo sapiens, UniProt P24941, C177A/T182C); assay: Kinetic thiol consumption assay with Cdk2 mutant T182C; assay type: binding; set-up: key to Rate enhancement, Cdk2 T182C: rate constant with Cdk2 ÷ rate constant with model thiol (fold); details: additional mutation C177A; for Rate constant with Cdk2 T182C: Protein: Cdk2, cysteine position T182C, in h^-1
T6 construct: poly-histidine; made in house; host or cells: E. coli
Description: as §2, §3, §4, §5, §6, §7

Cdk2(R122C) (C177A) = biological target: T7, Cdk2(R122C) (C177A) (Homo sapiens, UniProt P24941, C177A/R122C); assay: Kinetic thiol consumption assay with Cdk2 mutant R122C; assay type: binding; set-up: key to Rate enhancement, Cdk2 R122C: rate constant with Cdk2 ÷ rate constant with model thiol (fold); details: additional mutation C177A; for Rate constant with Cdk2 R122C: Protein: Cdk2, cysteine position R122C, in h-1
T7 construct: poly-histidine; made in house; host or cells: E. coli
Description: as §2, §3, §4, §5, §6, §7

Cdk2(S181C) (C177A) = biological target: T8, Cdk2(S181C) (C177A) (Homo sapiens, UniProt P24941, C177A/S181C); assay: Kinetic thiol consumption assay with Cdk2 mutant S181C; assay type: binding; set-up: key to Rate enhancement, Cdk2 S181C: rate constant with Cdk2 ÷ rate constant with model thiol (fold); details: additional mutation C177A; for Rate constant with Cdk2 S181C: Protein: Cdk2, cysteine position S181C, in h^-1
T8 construct: poly-histidine; made in house; host or cells: E. coli
Description: as §2, §3, §4, §5, §6, §7

[3] = 500 μM ligand, 5 μM thiol, phosphate buffer pH 8

| Rate enhancement, Cdk2 WT [2] | Rate constant with Cdk2 WT [2] | Rate enhancement, Cdk2 F80C (Cdk2(C177A, F80C)) | Rate constant with Cdk2 F80C (Cdk2(C177A, F80C)) | Rate enhancement, Cdk2 H71C (Cdk2(H71C) (C177A)) | Rate constant with Cdk2 H71C (Cdk2(H71C) (C177A)) | Rate enhancement, Cdk2 S276C (Cdk2(S276C) (C177A)) | Rate constant with Cdk2 S276C (Cdk2(S276C) (C177A)) | Rate enhancement, Cdk2 N272 (Cdk2(N272C) (C177A)) | Rate constant with Cdk2 N272C (Cdk2(N272C) (C177A)) | Rate enhancement, Cdk2 T182C (Cdk2(T182C) (C177A)) | Rate constant with Cdk2 T182C (Cdk2(T182C) (C177A)) | Rate enhancement, Cdk2 R122C (Cdk2(R122C) (C177A)) | Rate constant with Cdk2 R122C (Cdk2(R122C) (C177A)) | Rate enhancement, Cdk2 S181C (Cdk2(S181C) (C177A)) | Rate constant with Cdk2 S181C (Cdk2(S181C) (C177A)) | Rate constant with Cdk2 (k(Cdk2)) [2, 3] | k(Cdk2)/k(GSH) rate enhancement ([2]; model thiol glutathione) | SMILES | Rate constant with Glutathione [1] | Rate constant with glutathione (k(GSH)) [1, 3] |
| --- | --- | --- | --- | --- | --- | --- | --- | --- | --- | --- | --- | --- | --- | --- | --- | --- | --- | --- | --- | --- |
| 1.366 | 0.2899 | 0.1651 | 0.03506 | 0.2907 | 0.06172 | 2.266 | 0.481 | 2.393 | 0.5081 | 2.038 | 0.4326 | 2.423 | 0.5145 | 1.479 | 0.314 |  |  | C=CC(=O)N(Cc1ccco1)Cc1ccco1 [CA-099/153] | 0.2123 |  |
| 0.2508 | 0.002741 | 0.1819 | 0.001988 | 0.03271 | 0.0003575 | 1.682 | 0.01838 | 0.3936 | 0.004302 | 0.8826 | 0.009647 | 0.925 | 0.01011 | 0.2227 | 0.002434 |  |  | C=CC(=O)N1CCC2(CC1)NC(=O)C1(CCCCC1)N2 [CA-129/235] | 0.01093 |  |
| 4.361 | 1.596 | 0.01666 | 0.006096 | 0.3522 | 0.1289 | 4.615 | 1.689 | 0.243 | 0.08895 | 0 |  | 0.1248 | 0.04566 | 0.08978 | 0.03286 |  |  | O=C(CCl)N1CCSc2ccccc21 [EN004] | 0.366 |  |
| 0.2317 | 0.00279 | 0.08364 | 0.001007 | 0 |  | 0.2885 | 0.003474 | 0.2756 | 0.003318 | 0.9651 | 0.01162 | 0.173 | 0.002083 | 0.1377 | 0.001658 |  |  | C=CC(=O)N(CC(=O)N1CCCC1)CC1CCCO1 (stereo not drawn) [CA-080/239] | 0.01204 |  |
| 0.3023 | 0.003401 | 1.641 | 0.01846 | 0.8889 | 0.01 | 1.276 | 0.01436 | 0.8907 | 0.01002 | 10.32 | 0.1161 | 0.7142 | 0.008035 | 12.97 | 0.1459 |  |  | C=CC(=O)N1CCCCCC1C/C=C/c1ccccc1 (stereo not drawn) [CA-096/146] | 0.01125 |  |
| 1.405 | 0.02299 | 2.232 | 0.03651 | 15.36 | 0.2513 | 1.851 | 0.03029 | 3.007 | 0.04919 | 14.8 | 0.2422 | 1.534 | 0.02509 | 1.043 | 0.01707 |  |  | C=CC(=O)N(c1cccc2ncccc12)C1CCC1 [CA-032/228] | 0.01636 |  |
| 1.986 | 0.004821 | 0.5052 | 0.001226 | 0 |  | 0.3126 | 0.0007587 | 0.3641 | 0.0008836 | 0.5731 | 0.001391 | 0.304 | 0.0007379 | 0.953 | 0.002313 | 0.00308 | 1.271 | C=CC(=O)NC1(C(N)=O)CCCCC1 [EL-1170] | 0.002427 | 0.00243 |

| SMILES | Rate enhancement, Cdk2 WT [2] | Rate constant with Cdk2 WT [2] | Rate enhancement, Cdk2 F80C (Cdk2(C177A, F80C)) | Rate constant with Cdk2 F80C (Cdk2(C177A, F80C)) | Rate enhancement, Cdk2 H71C (Cdk2(H71C) (C177A)) | Rate constant with Cdk2 H71C (Cdk2(H71C) (C177A)) | Rate enhancement, Cdk2 S276C (Cdk2(S276C) (C177A)) | Rate constant with Cdk2 S276C (Cdk2(S276C) (C177A)) | Rate enhancement, Cdk2 N272 (Cdk2(N272C) (C177A)) | Rate constant with Cdk2 N272C (Cdk2(N272C) (C177A)) | Rate enhancement, Cdk2 T182C (Cdk2(T182C) (C177A)) | Rate constant with Cdk2 T182C (Cdk2(T182C) (C177A)) | Rate enhancement, Cdk2 R122C (Cdk2(R122C) (C177A)) | Rate constant with Cdk2 R122C (Cdk2(R122C) (C177A)) | Rate enhancement, Cdk2 S181C (Cdk2(S181C) (C177A)) | Rate constant with Cdk2 S181C (Cdk2(S181C) (C177A)) | Rate constant with Cdk2 (k(Cdk2)) [2, 3] | k(Cdk2)/k(GSH) rate enhancement ([2]; model thiol glutathione) | Rate constant with Glutathione [1] | Rate constant with glutathione (k(GSH)) [1, 3] |
| --- | --- | --- | --- | --- | --- | --- | --- | --- | --- | --- | --- | --- | --- | --- | --- | --- | --- | --- | --- | --- |
| CC1CN(C(=O)CCl)CC(C)O1 (stereo not drawn) [EN012] | 1.086 | 0.2933 | 0 |  | 0.03607 | 0.009738 | 0.5904 | 0.1594 | 0.1055 | 0.02849 | 0.3161 | 0.08536 | 0.02811 | 0.00759 | 0.067 | 0.01809 |  |  | 0.27 |  |
